Results published in PMC7105138, “Modeling cancer genomic data in yeast reveals selection against ATM function during tumorigenesis” (PLoS Genetics, 2020).
Numbering of substitutions follows the chain as printed.

How the values were obtained:
[1] = biological target: T1, Rad50 (Saccharomyces cerevisiae, UniProt P12753, D67Y); assay: nitrocellulose filter binding, […]-ATP; conditions: 2 uM Rad50, 50 uM ATP incl. 0.1 uM alpha-32P-ATP (labelled compound), 2 mM MgCl2, pH 8.0, RT then ice
T1 construct: full-length Rad50 with C-terminal 1xFLAG tag (DYKDDDDK), tag kept; plasmid pR50.1 (2mu, GAL-PGK-RAD50); overexpressed and purified from yeast
T1 sequence (P12753 1-1312 D67Y): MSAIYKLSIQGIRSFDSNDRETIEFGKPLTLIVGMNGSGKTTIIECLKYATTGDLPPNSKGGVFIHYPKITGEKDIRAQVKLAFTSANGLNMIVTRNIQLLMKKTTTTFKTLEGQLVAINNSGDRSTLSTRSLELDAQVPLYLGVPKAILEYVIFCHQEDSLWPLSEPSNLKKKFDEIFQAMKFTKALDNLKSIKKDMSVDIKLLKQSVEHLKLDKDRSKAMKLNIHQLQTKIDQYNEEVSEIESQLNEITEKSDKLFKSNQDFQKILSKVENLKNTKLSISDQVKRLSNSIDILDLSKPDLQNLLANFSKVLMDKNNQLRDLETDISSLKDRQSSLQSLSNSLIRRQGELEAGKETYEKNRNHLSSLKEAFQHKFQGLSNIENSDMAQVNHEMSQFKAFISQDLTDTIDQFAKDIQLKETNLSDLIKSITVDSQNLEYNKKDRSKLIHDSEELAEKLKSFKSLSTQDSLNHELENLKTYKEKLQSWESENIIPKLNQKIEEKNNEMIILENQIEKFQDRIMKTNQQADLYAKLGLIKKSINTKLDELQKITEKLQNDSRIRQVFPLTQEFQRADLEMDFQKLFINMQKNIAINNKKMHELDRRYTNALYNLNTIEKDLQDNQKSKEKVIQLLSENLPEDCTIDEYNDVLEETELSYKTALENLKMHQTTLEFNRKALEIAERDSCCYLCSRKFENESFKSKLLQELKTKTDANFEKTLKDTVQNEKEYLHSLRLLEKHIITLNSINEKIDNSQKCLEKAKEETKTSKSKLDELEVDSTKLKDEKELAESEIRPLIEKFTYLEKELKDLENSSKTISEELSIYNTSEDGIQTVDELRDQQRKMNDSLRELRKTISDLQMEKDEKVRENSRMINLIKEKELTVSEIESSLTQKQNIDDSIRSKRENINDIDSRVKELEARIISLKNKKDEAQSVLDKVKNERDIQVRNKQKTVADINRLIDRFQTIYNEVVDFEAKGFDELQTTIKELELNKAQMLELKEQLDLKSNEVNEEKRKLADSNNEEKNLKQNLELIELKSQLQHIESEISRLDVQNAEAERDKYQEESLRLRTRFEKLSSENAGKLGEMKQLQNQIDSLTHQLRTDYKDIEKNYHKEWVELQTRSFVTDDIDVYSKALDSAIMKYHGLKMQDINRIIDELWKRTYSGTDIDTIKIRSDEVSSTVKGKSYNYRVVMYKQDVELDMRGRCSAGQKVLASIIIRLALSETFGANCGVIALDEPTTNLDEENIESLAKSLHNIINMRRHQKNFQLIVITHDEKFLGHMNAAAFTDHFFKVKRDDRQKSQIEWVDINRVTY

[2] = biological target: T2, Rad50 (Saccharomyces cerevisiae, UniProt P12753, L1240F); assay: nitrocellulose filter binding, […]-ATP; conditions: 2 uM Rad50, 50 uM ATP incl. 0.1 uM alpha-32P-ATP (labelled compound), 2 mM MgCl2, pH 8.0, RT then ice
T2 construct: full-length Rad50 with C-terminal 1xFLAG tag (DYKDDDDK), tag kept; plasmid pR50.1 (2mu, GAL-PGK-RAD50); overexpressed and purified from yeast
T2 sequence (P12753 1-1312 L1240F): T1 sequence (P12753 1-1312 D67Y) with Y67D, L1240F

[3] = biological target: T3, Rad50 (Saccharomyces cerevisiae, UniProt P12753, D67N); assay: nitrocellulose filter binding, […]-ATP; conditions: 2 uM Rad50, 50 uM ATP incl. 0.1 uM alpha-32P-ATP (labelled compound), 2 mM MgCl2, pH 8.0, RT then ice
T3 construct: full-length Rad50 with C-terminal 1xFLAG tag (DYKDDDDK), tag kept; plasmid pR50.1 (2mu, GAL-PGK-RAD50); overexpressed and purified from yeast
T3 sequence (P12753 1-1312 D67N): T1 sequence (P12753 1-1312 D67Y) with Y67N

[4] = biological target: T4, Rad50 (Saccharomyces cerevisiae, UniProt P12753); assay: nitrocellulose filter binding, […]-ATP; conditions: 2 uM Rad50, 50 uM ATP incl. 0.1 uM alpha-32P-ATP (labelled compound), 2 mM MgCl2, pH 8.0, RT then ice
T4 construct: full-length Rad50 with C-terminal 1xFLAG tag (DYKDDDDK), tag kept; plasmid pR50.1 (2mu, GAL-PGK-RAD50); overexpressed and purified from yeast
T4 sequence (P12753 1-1312): T1 sequence (P12753 1-1312 D67Y) with Y67D

[5] = tested on: Rad50 WT (Saccharomyces cerevisiae); assay: EMSA; conditions: ATP, 5 mM Mg2+, 150 mM NaCl; 25 mM Tris-Cl pH 7.6, 150 mM NaCl (also 50, 250, 300 mM), 7.5% glycerol, 1 mM beta-mercaptoethanol, 0.125% Igepal, 5 mM MgCl2, with or without 5 mM ATP; 5 nM …

For `Nc1ncnc2c1ncn2[C@@H]1O[C@H](COP(=O)(O)OP(=O)(O)OP(=O)(O)O)[C@@H](O)[C@H]1O` [ATP], the ATP/Rad50 [1] was 0.7 ATP/Rad50, the ATP/Rad50 [2] was 0.4 ATP/Rad50 and the ATP/Rad50 [3] was 0.6 ATP/Rad50. For the same molecule, the “molar ratio of bound ATP to Rad50” value [4] was 1.1 ATP/Rad50.
Molecule 83-mer dsDNA oligonucleotide has a Kd [5] of 180 nM.
